Data reported in publication PMC11310113, “Development of a UPLC-MS/MS method for quantifying KPT-335 (Verdinexor) in feline plasma for a study of PK” (Frontiers in Veterinary Science, 2024).
Read-outs that look alike come from different tables or passages of the source.

What was measured:
[1] = Pharmacokinetic study of KPT-335 capsules in cats, single oral dose; format: in vivo, cat
Description: The recommended dose of KPT-335 for dogs is 1.5 mg/kg body weight (BW). To calculate the dose for cats, the average weight of the tested cats was substituted in the equation used for dogs, and the recommended dose was 2 mg/kg BW through body surface area (BSA) conversion ([20]). The formula was as follows: […]
where K is a constant determined for different animal species, such as a dog (11.0) and cat (8.7), and W is the BW (kg) of the animal. Km is approximated by the individual animal species taking the ratio between the mean weight (kg) and BSA (m^2), this value can be calculated using Formula 1. The average weight of the six tested cats was used in BW parameters, the dosage was calculated by Formula 2, and KPT-335 was weighed into capsules and administered to the animals. The cats were fasted for 12 h before and 2 h following drug administration. Potential adverse effects were monitored during the study. The capsules were administered orally as a single bolus to the back of the tongue via a dosing syringe, accompanied by 3–5 mL of water.
Samples of blood (1 mL) were collected from the brachial cephalic vein at 0.167, 0.333, 0.5, 0.75, 1, 1.5, 2, 4, 6, 8, 12, 24, 36, and 48 h pre- and post-oral dosing into an anticoagulant blood collection tube containig heparin sodium. Blood samples were centrifuged for 8 min at 1800 × g. The plasma layer was taken and divided evenly into two. The plasma samples were stored at −20°C until analysis (within 20 days of collection). For the pharmacokinetic parameters, the blood drug concentration-time data was analyzed by using WinNonlin software (version 8.1, United States). The elimination half-life (T1/2), the maximum plasma concentration of KPT-335 (Cmax), the time when the plasma concentration reached a maximum (Tmax), and the area under the concentration-time curve (AUC) were determined.

[2] = Stability of KPT-335 in cat plasma samples (UPLC-MS/MS); format: in vitro ADME; conditions: for recovery at 8 h: cat
Description: KPT-335 working solution was added to blank plasma, LQC, MQC, and HQC samples to investigate the room-temperature stability for 2 h, freeze–thaw stability with three times, autosampler stability for 24 h, and long-term stability of 20 days at −20°C. The stability of the stock solution for 20 days was also investigated.
Given that plasma is mostly neutral or alkaline, to optimize the stability of KPT-335 at room temperature and ensure the desirable result of the sample during the detection process, we carried out further experiments. There were four groups in the experiment. The first group was the normal preparation of the sample, and the second, third, and fourth groups were samples containing 0.01, 0.05, or 0.1% formic acid, respectively. All the samples were placed at room temperature for 12 h and then processed at the same time for detection.

[3] = design: method as in PMID 30143046; conditions: day 14, cited from earlier work; for AUClast (AUC) / HL_Lambda_z / Tmax: dog (n = 4)
[4] = design: method as in PMID 24503695; conditions: healthy beagle dogs (n = 6), single dose 1.5 mg/kg BW p.o. after meals; cited from earlier work
[5] = cat (n = 6), 2 mg/kg BW p.o., single dose, fasted
[6] = plasma, cats, single oral dose of capsules 2 mg/kg BW
[7] = average of all dogs (1.5 and 1.25 mg/kg BW)

With `O=C(/C=C\n1cnc(-c2cc(C(F)(F)F)cc(C(F)(F)F)c2)n1)NNc1ccccn1` [KPT-335] the AUC_%Extrap_obs [1, 5] was 11.32 ± 6.56%, the HL_Lambda_z [1, 5] was 5.16 ± 2.30 h and the MRT last ([1]; plasma, po, cat (n = 6), 2 mg/kg BW p.o., single dose, fasted) was 5.46 ± 2.14 h. The k el ([1]; plasma, po, cat (n = 6), 2 mg/kg BW p.o., single dose, fasted, read-out: Lambda_z (converted)) was 4.17e-05 s⁻¹, the AUC(0-inf) [1, 6] was 1590 ± 1000 ng·h/mL and the AUC(0-t) [1, 6] was 1440 ± 965 ng·h/mL. For the same molecule, the Cmax [1, 6] was 240 ± 191 ng/mL, the Tmax [1, 6] was 1.46 ± 0.51 h and the half-life [1, 6] was 5.16 ± 2.3 h. The “room temperature stability accuracy” value ([2]; acidic plasma (formic acid added), room temperature, 12 h) was “still acceptable”, the recovery at 8 h ([2]; plasma, 4°C, read-out: sample recovery) was over 80% and the recovery at 8 h ([2]; plasma, 8 h at room temperature, read-out: sample recovery rate) was 59 to 67.5%. For the same molecule, the recovery at 8 h ([2]; plasma, light-protected, read-out: recovery rate of light-protected samples) was 60.4 to 63.2%, the “accuracy of stable samples at room temperature” value ([2]; plasma containing 0.1% formic acid, room temperature, 12 h) was “more than 85%” and the “room temperature stability accuracy” value ([2]; plasma, room temperature, 2 h, all concentrations) was “met the requirement of ±15%”. For the same molecule, the “room temperature stability accuracy” value ([2]; plasma, room temperature, 8 h) was “did not meet the requirement of ±15%”, the “room temperature stability result” value ([2]; plasma, room temperature, 24 h) was “not within the requirement of ±15%” and the “average T1/2” value [3, 7] was 5 h. For the same molecule, the “average Tmax” value [3, 7] was 5.3 h, the “AUClast (AUC)” value ([3]; 1.25 mg/kg BW p.o.) was 1576.5 ng·h/mL and the HL_Lambda_z ([3]; 1.25 mg/kg BW p.o.) was 5 h. For the same molecule, the Tmax ([3]; 1.25 mg/kg BW p.o.) was 5.3 h, the “AUClast (AUC)” value ([3]; 1.5 mg/kg BW p.o.) was 2346.8 ng·h/mL and the HL_Lambda_z ([3]; 1.5 mg/kg BW p.o.) was 5 h. For the same molecule, the Tmax ([3]; 1.5 mg/kg BW p.o.) was 5.3 h, the AUCINF_obs [4] was 1810 ± 216 ng·h/mL and the “AUClast (AUC0-t)” value [4] was 1760 ± 223 ng·h/mL. For the same molecule, the Cmax [4] was 253 ± 88.3 ng/mL, the “HL_Lambda_z (T1/2)” value [4] was 3.88 ± 1.47 h and the Tmax [4] was 3.83 ± 2.71 h.
